# Measured values: US10472356B2, “Bicyclic ketone sulfonamide compounds” (AMGEN INC., priority 2015, dated 2019)
# How the values were obtained:
# Assay type in all cases: cell-based
# [1] = target: T1, human Nav1.7 (Homo sapiens, UniProt Q15858); test: Nav 1.7 In Vitro PatchXpress (PX) Assay; details: HEK 293 cells stably transfected with human Nav1.7; PatchXpress whole cell voltage clamp; partially inactivated state (holding potential yielding 20 to 50% inactivation); read-out: hNav1.7 PX IC50
# T1 construct: expressed in transfected cells; host or cells: HEK293
# In short: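 Whole-cell voltage clamp on HEK 293 cells stably expressing human Nav1.7 (automated patch), holding potential giving 20–50% inactivation; 20 ms pulses to −10 mV at 0.1 Hz. Single compound concentration applied 3 min, peak current inhibition measured; IC50 fitted from 3–5 cells per concentration.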
# [2] = target: T1, human Nav1.7; test: Nav 1.7 IWB In Vitro Assay (IonWorks Barracuda); details: HEK293 cells stably transfected with human Nav 1.7; IonWorks Barracuda population patch-clamp; cells clamped to −20 mV for 4 minutes with compound; 26th pulse; read-out: hNav1.7 IWB IC50
# In short: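 Population patch clamp of HEK293 cells stably expressing human Nav 1.7: 26 pulses to −20 mV (150 ms, 5 Hz) from −110 mV, then 4 min at −20 mV with compound, 3 s recovery at −110 mV and the train repeated. % inhibition of 26th-pulse peak current vs no compound; IC50 from concentration-response curves.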
# [3] = target: T1, human Nav1.7; test: Nav 1.7 IWQ In Vitro Assay (IonWorks Quattro); details: HEK293 cells stably transfected with human Nav 1.7; IonWorks Quattro population patch-clamp; 26th pulse to −20 mV, 5 Hz; cells unclamped 5 to 8 minutes with compound; read-out: hNav1.7 IWQ IC50
# Description: Nav 1.7 or Nav 1.5 IWQ In Vitro Assay
# HEK293 cells stably transfected with either human Nav 1.7 or human Nav 1.5 were recorded in population patch-clamp mode with the IonWorks® Quattro automated electrophysiology system (Molecular Devices, LLC, Sunnyvale, Calif.). Cells were voltage clamped to −110 mV for three seconds (Nav 1.7) or half a second (Nav 1.5) and sodium currents were elicited by a train of 26 depolarizations of 150 msec duration to −20 mV (Nav 1.7) or 0 mV (Nav 1.5) at a frequency of 5 Hz. Cells were then left unclamped for a period of 5 to 8 minutes while a single concentration of test compound was added. Following this compound incubation period, cells were then reclamped to −110 mV for three seconds (Nav1.7) or half a second (Nav1.5) to recover unbound channels and put through the same 26 pulse voltage protocol as above. Peak inward current during the 26th pulse to −20 mV (Nav 1.7) or 0 mV (Nav 1.5) in the presence of compound was divided by the peak inward current evoked by the 26th pulse to −20 mV (Nav1.7) or 0 mV (Nav1.5) in the absence of compound to determine percent inhibition. Concentration-response curves of percent.
# T1 sequence (Q15858 whole entry): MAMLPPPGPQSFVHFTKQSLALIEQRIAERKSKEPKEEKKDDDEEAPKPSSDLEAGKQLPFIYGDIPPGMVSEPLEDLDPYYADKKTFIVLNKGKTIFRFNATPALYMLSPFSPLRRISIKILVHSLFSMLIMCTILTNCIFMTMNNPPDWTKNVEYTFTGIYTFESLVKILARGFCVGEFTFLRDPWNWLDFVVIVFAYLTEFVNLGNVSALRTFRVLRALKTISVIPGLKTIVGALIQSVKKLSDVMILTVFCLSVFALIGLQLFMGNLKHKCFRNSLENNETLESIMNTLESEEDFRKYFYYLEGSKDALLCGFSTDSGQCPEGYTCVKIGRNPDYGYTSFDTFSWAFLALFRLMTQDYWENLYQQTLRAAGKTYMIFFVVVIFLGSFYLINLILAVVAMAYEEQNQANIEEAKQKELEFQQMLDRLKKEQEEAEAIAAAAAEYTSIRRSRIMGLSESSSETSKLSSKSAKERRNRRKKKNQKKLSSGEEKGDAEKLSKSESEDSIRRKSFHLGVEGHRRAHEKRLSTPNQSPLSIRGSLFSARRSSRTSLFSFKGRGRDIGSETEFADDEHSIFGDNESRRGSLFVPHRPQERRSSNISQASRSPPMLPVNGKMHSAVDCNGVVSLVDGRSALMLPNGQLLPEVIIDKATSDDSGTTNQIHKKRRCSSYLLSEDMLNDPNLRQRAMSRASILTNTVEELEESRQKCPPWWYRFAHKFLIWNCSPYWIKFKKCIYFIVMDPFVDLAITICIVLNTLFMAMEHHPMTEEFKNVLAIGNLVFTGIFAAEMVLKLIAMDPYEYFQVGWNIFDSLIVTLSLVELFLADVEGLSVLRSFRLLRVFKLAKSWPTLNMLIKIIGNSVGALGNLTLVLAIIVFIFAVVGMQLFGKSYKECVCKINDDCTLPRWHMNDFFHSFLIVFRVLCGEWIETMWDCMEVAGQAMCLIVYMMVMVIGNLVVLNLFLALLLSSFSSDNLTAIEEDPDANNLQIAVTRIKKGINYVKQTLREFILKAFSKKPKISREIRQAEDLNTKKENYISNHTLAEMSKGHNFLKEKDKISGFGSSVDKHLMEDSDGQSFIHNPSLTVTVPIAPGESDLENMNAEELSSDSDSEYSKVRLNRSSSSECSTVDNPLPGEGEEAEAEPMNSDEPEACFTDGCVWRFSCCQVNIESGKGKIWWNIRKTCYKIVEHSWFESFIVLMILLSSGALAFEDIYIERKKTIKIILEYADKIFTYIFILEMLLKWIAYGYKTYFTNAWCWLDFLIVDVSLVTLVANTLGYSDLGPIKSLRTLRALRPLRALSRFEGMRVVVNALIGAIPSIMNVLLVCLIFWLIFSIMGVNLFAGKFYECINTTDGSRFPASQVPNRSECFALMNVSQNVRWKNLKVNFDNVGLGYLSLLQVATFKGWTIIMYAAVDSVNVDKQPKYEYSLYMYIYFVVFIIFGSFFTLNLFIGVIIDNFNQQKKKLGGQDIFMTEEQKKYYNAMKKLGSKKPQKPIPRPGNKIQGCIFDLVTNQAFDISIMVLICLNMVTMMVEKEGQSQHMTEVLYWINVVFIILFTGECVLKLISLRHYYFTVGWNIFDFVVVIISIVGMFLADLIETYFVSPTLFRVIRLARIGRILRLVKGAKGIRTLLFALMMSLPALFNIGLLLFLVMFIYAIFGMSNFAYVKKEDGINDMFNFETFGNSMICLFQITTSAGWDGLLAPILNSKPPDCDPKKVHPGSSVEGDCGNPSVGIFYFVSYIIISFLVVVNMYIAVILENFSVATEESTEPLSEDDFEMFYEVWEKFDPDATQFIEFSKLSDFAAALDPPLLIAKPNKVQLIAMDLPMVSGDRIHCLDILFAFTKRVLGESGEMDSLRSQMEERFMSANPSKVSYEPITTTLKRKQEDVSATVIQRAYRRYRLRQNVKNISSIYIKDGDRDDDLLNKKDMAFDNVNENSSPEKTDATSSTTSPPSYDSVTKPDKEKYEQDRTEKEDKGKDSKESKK
Compound,IC50 [1],IC50 [2],IC50 [3]
"COc1cc(-c2cc(F)cc(Cl)c2)c(F)cc1-n1c2c(ccc1=O)CN(S(=O)(=O)Nc1ncns1)CC2 (racemic) [5-(Rac), (Rac)-1-(3′-chloro-2,5′-difluoro-5-methoxy-4-biphenylyl)-2-oxo-N-1,2,4-thiadiazol-5-yl-1,5,7,8-tetrahydro-1,6-naphthyridine-6(2H)-sulfonamide]",54.6 nM,6.7 nM,7.3 nM
"COc1cc(-c2cc(Cl)ccc2C)c(F)cc1-n1c2c(ccc1=O)CN(S(=O)(=O)Nc1ccon1)CC2 (racemic) [9-(Rac), (Rac)-1-(5′-chloro-2-fluoro-5-methoxy-2′-methyl-4-biphenylyl)-N-3-isoxazolyl-2-oxo-1,5,7,8-tetrahydro-1,6-naphthyridine-6(2H)-sulfonamide]",30.7 nM,5.4 nM,4.6 nM
"COc1cc(-c2cc(F)cc(Cl)c2)c(F)cc1-n1c2c(ccc1=O)CN(S(=O)(=O)Nc1ccc(F)cn1)CC2 (racemic) [Example 12-(Rac), (Rac)-1-(3′-chloro-2,5′-difluoro-5-methoxy-4-biphenylyl)-N-(5-fluoro-2-pyridinyl)-2-oxo-1,5,7,8-tetrahydro-1,6-naphthyridine-6(2H)-sulfonamide]",106 nM,91.3 nM,81.5 nM
"COc1cc(-c2cc(F)cc(Cl)c2)c(F)cc1-n1c2c(ccc1=O)CN(S(=O)(=O)Nc1cccc(F)n1)CC2 (racemic) [Example 13-(Rac), (Rac)-1-(3′-chloro-2,5′-difluoro-5-methoxy-4-biphenylyl)-N-(6-fluoro-2-pyridinyl)-2-oxo-1,5,7,8-tetrahydro-1,6-naphthyridine-6(2H)-sulfonamide]",123 nM,27.6 nM,33.2 nM
"COc1cc(-c2cc(F)cc(F)c2)c(F)cc1-n1c2c(ccc1=O)CN(S(=O)(=O)Nc1cccc(F)n1)CC2 (racemic) [Example 14-(Rac), (Rac)-N-(6-fluoro-2-pyridinyl)-2-oxo-1-(2,3′,5′-trifluoro-5-methoxy-4-biphenylyl)-1,5,7,8-tetrahydro-1,6-naphthyridine-6(2H)-sulfonamide]",74.2 nM,25.6 nM,44.4 nM
"COc1cc(-c2cc(OC)c(-n3c4c(ccc3=O)CN(S(=O)(=O)Nc3ccon3)CC4)cc2F)ccc1Cl (racemic) [Example 15-(Rac), (Rac)-1-(4′-chloro-2-fluoro-3′,5-dimethoxy-4-biphenylyl)-N-3-isoxazolyl-2-oxo-1,5,7,8-tetrahydro-1,6-naphthyridine-6(2H)-sulfonamide]",21.8 nM,8.1 nM,121 nM
"COc1cc(-c2cccc(C(F)(F)F)c2)c(F)cc1-n1c2c(ccc1=O)CN(S(=O)(=O)Nc1ccon1)CC2 (racemic) [Example 16-(Rac), (Rac)-1-(2-fluoro-5-methoxy-3′-(trifluoromethyl)-4-biphenylyl)-N-3-isoxazolyl-2-oxo-1,5,7,8-tetrahydro-1,6-naphthyridine-6(2H)-sulfonamide]",38.8 nM,5.3 nM,4.7 nM
"COc1cc(-c2cc(F)cc(Cl)c2)c(F)cc1-n1c2c(ccc1=O)CN(S(=O)(=O)Nc1ccon1)CC2 (racemic) [Example 18-(Rac), (Rac)-1-(3′-chloro-2,5′-difluoro-5-methoxy-4-biphenylyl)-N-3-isoxazolyl-2-oxo-1,5,7,8-tetrahydro-1,6-naphthyridine-6(2H)-sulfonamide]",39.9 nM,6.9 nM,4.3 nM
"COc1cc(-c2cccc(OC(F)F)c2)c(F)cc1-n1c2c(ccc1=O)CN(S(=O)(=O)Nc1ccon1)CC2 (racemic) [Example 19-(Rac), (Rac)-1-(3′-(difluoromethoxy)-2-fluoro-5-methoxy-4-biphenylyl)-N-3-isoxazolyl-2-oxo-1,5,7,8-tetrahydro-1,6-naphthyridine-6(2H)-sulfonamide]",117 nM,15.6 nM,5.5 nM
"COc1cc(-c2ccc(F)c(F)c2)c(F)cc1-n1c2c(ccc1=O)CN(S(=O)(=O)Nc1ccon1)CC2 (racemic) [Example 20-(Rac), (Rac)-N-3-isoxazolyl-2-oxo-1-(2,3′,4′-trifluoro-5-methoxy-4-biphenylyl)-1,5,7,8-tetrahydro-1,6-naphthyridine-6(2H)-sulfonamide]",159 nM,31.5 nM,6.7 nM
"COc1cc(-c2ccc(C)c(F)c2)c(F)cc1-n1c2c(ccc1=O)CN(S(=O)(=O)Nc1ccon1)CC2 (racemic) [Example 21-(Rac), (Rac)-1-(2,3′-difluoro-5-methoxy-4′-methyl-4-biphenylyl)-N-3-isoxazolyl-2-oxo-1,5,7,8-tetrahydro-1,6-naphthyridine-6(2H)-sulfonamide]",91.3 nM,17.8 nM,14.3 nM
"COc1cc(-c2cc(C(F)(F)F)cnc2OC)c(F)cc1-n1c2c(ccc1=O)CN(S(=O)(=O)Nc1ccon1)CC2 (racemic) [Example 23, (Rac)-1-(5-fluoro-2-methoxy-4-(2-methoxy-5-(trifluoromethyl)-3-pyridinyl)phenyl)-N-3-isoxazolyl-2-oxo-1,5,7,8-tetrahydro-1,6-naphthyridine-6(2H)-sulfonamide]",25.4 nM,6.8 nM,7 nM
"COc1cc(-c2ccc(Cl)c(C)c2)c(F)cc1-n1c2c(ccc1=O)CN(S(=O)(=O)Nc1ccon1)CC2 (racemic) [Example 24-(Rac), (Rac)-1-(4′-chloro-2-fluoro-5-methoxy-3′-methyl-4-biphenylyl)-N-3-isoxazolyl-2-oxo-1,5,7,8-tetrahydro-1,6-naphthyridine-6(2H)-sulfonamide]",73.7 nM,–,6.7 nM
"COc1cc(-c2cc(F)cc(Cl)c2)c(F)cc1-n1c2c(ccc1=O)CN(S(=O)(=O)Nc1ncccn1)CC2 (racemic) [Example 31, (Rac)-1-(3′-chloro-2,5′-difluoro-5-methoxy-4-biphenylyl)-2-oxo-N-2-pyrimidinyl-1,5,7,8-tetrahydro-1,6-naphthyridine-6(2H)-sulfonamide]",137 nM,36.2 nM,28.1 nM
"COc1cc(-c2ccc(F)c(F)c2)c(F)cc1-n1c2c(ccc1=O)CN(S(=O)(=O)Nc1cccnn1)CC2 (racemic) [Example 32-(Rac), (Rac)-2-oxo-N-3-pyridazinyl-1-(2,3′,4′-trifluoro-5-methoxy-4-biphenylyl)-1,5,7,8-tetrahydro-1,6-naphthyridine-6(2H)-sulfonamide]",161 nM,30.5 nM,23.7 nM
"COc1cc(-c2cc(F)cc(F)c2)c(F)cc1-n1c2c(ccc1=O)CN(S(=O)(=O)Nc1ccon1)CC2 (single isomer, unassigned) [Example 25-P, P-N-3-isoxazolyl-2-oxo-1-(2,3′,5′-trifluoro-5-methoxy-4-biphenylyl)-1,5,7,8-tetrahydro-1,6-naphthyridine-6(2H)-sulfonamide]",176 nM,–,7.2 nM
"COc1cc(-c2cc(F)c(F)c(C(F)F)c2)c(F)cc1-n1c2c(ccc1=O)CN(S(=O)(=O)Nc1cccnn1)CC2 [Example 86, P-1-(3′-(difluoromethyl)-2,4′,5′-trifluoro-5-methoxy-[1,1′-biphenyl]-4-yl)-2-oxo-N-(pyridazin-3-yl)-1,2,7,8-tetrahydro-1,6-naphthyridine-6(5H)-sulfonamide]",–,14.3 nM,7.1 nM
"COc1cc(-c2ccc(C(F)F)c(F)c2)c(F)cc1-n1c2c(ccc1=O)CN(S(=O)(=O)Nc1cccnn1)CC2 [Example 87, P-1-(4′-(difluoromethyl)-2,3′-difluoro-5-methoxy-[1,1′-biphenyl]-4-yl)-2-oxo-N-(pyridazin-3-yl)-1,2,7,8-tetrahydro-1,6-naphthyridine-6(5H)-sulfonamide]",–,19 nM,12.4 nM
"COc1cc(CCC(F)(F)F)c(F)cc1-n1c2c(ccc1=O)CN(S(=O)(=O)Nc1ccon1)CC2 [Example 94, P-1-(5-fluoro-2-methoxy-4-(3,3,3-trifluoropropyl)phenyl)-N-(isoxazol-3-yl)-2-oxo-1,2,7,8-tetrahydro-1,6-naphthyridine-6(5H)-sulfonamide]",–,33.5 nM,18.7 nM
"COc1cc(CCC(F)(F)F)c(F)cc1-n1c2c(ccc1=O)CN(S(=O)(=O)Nc1cccnn1)CC2 [Example 95, P-1-(5-fluoro-2-methoxy-4-(3,3,3-trifluoropropyl)phenyl)-2-oxo-N-(pyridazin-3-yl)-1,2,7,8-tetrahydro-1,6-naphthyridine-6(5H)-sulfonamide]",–,36.5 nM,21 nM
